Experimental data published in PMC10134273 (Cancer Medicine, 2023).
Read-outs that look alike come from different tables or passages of the source.

Tests used:
[1] = Phase 1 plasma pharmacokinetics of EVER4010001; format: in vivo, human
Excerpt: After a screening period of up to 28 days, eligible patients received treatment according to a standard “3+3” dose escalation design. […] Treatment continued until unacceptable toxicity, progressive disease, and/or at the discretion of the Investigator or patient's withdrawal of consent.

[2] = system: FGFR4 pathway; assay: Exploratory biomarkers (total bile acids, C4, circulating FGF19); format: in vivo, human
Description: Secondary endpoints included PK parameters (e.g., maximum observed concentration [C max] and area under the concentration‐time curve [AUC]). Secondary endpoints included objective response rate (ORR), disease control rate (DCR), and duration of response (DOR) as assessed by investigator per RECIST v1.1. Tumor responses were assessed according to RECIST v1.1; computerized tomography scanning or magnetic resonance imaging was performed every 6 weeks in the first 48 weeks, and every 12 weeks thereafter. Secondary endpoints also included safety and tolerability (adverse events [AEs] as defined by the National Cancer Institute‐Common Terminology Criteria for Adverse Events CTCAE v5.0) and exploratory biomarkers (total bile acids, 7‐α‐hydroxy‐4‐cholesten‐3‐one [C4] and circulating FGF19). Safety follow‐up visit was performed within 30 days (±5 days) and 90 days (±7 days) after the last dose of the study treatment.

[3] = Cycle 1, Day 1, 40 mg BID (N=3) + pembrolizumab
[4] = Cycle 1, Day 1, 60 mg BID (N=3) + pembrolizumab
[5] = Cycle 1, Day 1, 80 mg BID (N=6) + pembrolizumab
[6] = Cycle 1, Day 1, 100 mg BID (N=7) + pembrolizumab
[7] = Cycle 1, Day 8, 40 mg BID (N=3) + pembrolizumab
[8] = Cycle 1, Day 8, 60 mg BID (N=3) + pembrolizumab
[9] = Cycle 1, Day 8, 80 mg BID (N=6) + pembrolizumab
[10] = Cycle 1, Day 8, 100 mg BID (N=7) + pembrolizumab
[11] = most patients treated with 40, 60, 80, and 100 mg

For `COCCNc1cc(NC(=O)N2CCCc3cc(CN4CCN(C)CC4=O)c(C=O)nc32)ncc1C#N` [EVER4010001, roblitinib], the “Geometric mean AUC0–t (geometric CV%)” value [1, 3] was 2363.64 (9.59) Hour·ng/ml, the “Mean t1/2 (SD)” value [1, 3] was 4.92 (0.16) Hour and the “Median tmax (Min, Max)” value [1, 3] was 0.550 (0.52, 1.05) Hour. For the same compound, the “Geometric mean AUC0–t (geometric CV%)” value [1, 4] was 4464.03 (37.96) Hour·ng/ml, the “Mean t1/2 (SD)” value [1, 4] was 4.00 (0.36) Hour and the “Median tmax (Min, Max)” value [1, 4] was 0.970 (0.93, 1.05) Hour. The “Geometric mean AUC0–t (geometric CV%)” value [1, 5] was 3774.38 (14.53) Hour·ng/ml, the “Mean t1/2 (SD)” value [1, 5] was 4.64 (1.44) Hour and the “Median tmax (Min, Max)” value [1, 5] was 1.030 (0.23, 2.00) Hour. For the same compound, the “Geometric mean AUC0–t (geometric CV%)” value [1, 6] was 5459.69 (8.34) Hour·ng/ml, the “Mean t1/2 (SD)” value [1, 6] was 4.22 (0.69) Hour and the “Median tmax (Min, Max)” value [1, 6] was 1.000 (0.52, 2.05) Hour. For the same compound, the “Geometric mean AUC0–t (geometric CV%)” value [1, 7] was 2084.60 (35.99) Hour·ng/ml, the “Mean Rac, drug accumulation ratio (SD)” value [1, 7] was 1.24 (0.25) and the “Mean t1/2 (SD)” value [1, 7] was 4.90 (2.59) Hour. For the same compound, the “Median tmax (Min, Max)” value [1, 7] was 1.030 (0.57, 2.00) Hour, the “Geometric mean AUC0–t (geometric CV%)” value [1, 8] was 3212.66 (27.61) Hour·ng/ml and the “Mean Rac, drug accumulation ratio (SD)” value [1, 8] was 1.31 (0.11). The “Mean t1/2 (SD)” value [1, 8] was 5.78 (1.12) Hour, the “Median tmax (Min, Max)” value [1, 8] was 0.970 (0.93, 1.07) Hour and the “Geometric mean AUC0–t (geometric CV%)” value [1, 9] was 4284.35 (25.05) Hour·ng/ml. The “Mean Rac, drug accumulation ratio (SD)” value [1, 9] was 1.16 (0.08), the “Mean t1/2 (SD)” value [1, 9] was 4.12 (0.90) Hour and the “Median tmax (Min, Max)” value [1, 9] was 0.990 (0.25, 1.05) Hour. For the same compound, the “Geometric mean AUC0–t (geometric CV%)” value [1, 10] was 6214.09 (24.13) Hour·ng/ml, the “Mean Rac, drug accumulation ratio (SD)” value [1, 10] was 1.23 (0.05) and the “Mean t1/2 (SD)” value [1, 10] was 4.97 (0.55) Hour. For the same compound, the “Median tmax (Min, Max)” value [1, 10] was 0.970 (0.50, 2.97) Hour, the “accumulation ratio (Rac)” value ([1]; Cycle 1 Day 8 vs Cycle 1 Day 1) was “around 1” and the steady state reached ([1]; after repeated BID dosing, based on T1/2) was “before Cycle 1 Day 8”. The Cmax ([1]; human, plasma, oral, Cycle 1, Day 1, 40 mg BID (N=3) + pembrolizumab, read-out: Geometric mean Cmax (geometric CV%)) was 0.56 µg/mL, the Cmax ([1]; human, plasma, oral, Cycle 1, Day 1, 60 mg BID (N=3) + pembrolizumab, read-out: Geometric mean Cmax (geometric CV%)) was 0.958 µg/mL and the Cmax ([1]; human, plasma, oral, Cycle 1, Day 1, 80 mg BID (N=6) + pembrolizumab, read-out: Geometric mean Cmax (geometric CV%)) was 0.897 µg/mL. For the same compound, the Cmax ([1]; human, plasma, oral, Cycle 1, Day 1, 100 mg BID (N=7) + pembrolizumab, read-out: Geometric mean Cmax (geometric CV%)) was 1.34 µg/mL, the Cmax ([1]; human, plasma, oral, Cycle 1, Day 8, 40 mg BID (N=3) + pembrolizumab, read-out: Geometric mean Cmax (geometric CV%)) was 0.427 µg/mL and the Cmax ([1]; human, plasma, oral, Cycle 1, Day 8, 60 mg BID (N=3) + pembrolizumab, read-out: Geometric mean Cmax (geometric CV%)) was 0.749 µg/mL. For the same compound, the Cmax ([1]; human, plasma, oral, Cycle 1, Day 8, 80 mg BID (N=6) + pembrolizumab, read-out: Geometric mean Cmax (geometric CV%)) was 0.991 µg/mL, the Cmax ([1]; human, plasma, oral, Cycle 1, Day 8, 100 mg BID (N=7) + pembrolizumab, read-out: Geometric mean Cmax (geometric CV%)) was 1.33 µg/mL and the AUC(0-t) ([1]; human, plasma, oral, Cycle 1 Day 1, range across dose levels, read-out: geometric mean AUC0–t) was 2.36 to 5.46 µg·h/mL. For the same compound, the Cmax ([1]; human, plasma, oral, Cycle 1 Day 1, range across dose levels, read-out: geometric mean Cmax) was 0.56 to 1.34 µg/mL, the AUC(0-t) ([1]; human, plasma, oral, range across 40-100 mg BID dose levels (abstract), read-out: AUC0–t) was 2.37 to 5.48 µg·h/mL and the Cmax ([1]; human, plasma, oral, range across 40-100 mg BID dose levels (abstract), read-out: maximum observed concentration (Cmax)) was 0.606 to 1.35 µg/mL. The half-life ([1]; human, plasma, oral, range across 40-100 mg BID dose levels, read-out: Mean plasma terminal half-life (T1/2)) was 4 to 4.92 h, the Tmax ([1]; human, plasma, oral, range across 40-100 mg BID dose levels, read-out: Median time to peak concentration (Tmax)) was 0.55 to 1.03 h and the “serum biomarkers (C4, total bile acid concentration, circulating FGF19) as indicator of pathway suppression” value ([2]; all doses) was “FGFR4 pathway suppression being achieved at all doses”. The “circulating FGF19” value [2, 11] was “elevated”, the “plasma C4 (7-α-hydroxy-4-cholesten-3-one)” value [2, 11] was “elevated” and the “total bile acid concentration” value [2, 11] was “elevated”.
